Patent publication US10766912B2 (priority 2017, dated 2020)
Read-outs that look alike come from different tables or passages of the source.

Assays:
Format in all cases: cell-based
[1] = system: HCV GT1b wild-type replicon; assay: Assay Example 1: activity against HCV GT1b wild-type replicon (luciferase, transient transfection); settings: Hepatitis C virus, 72 h, Huh 7 cells, 3 days
Procedure: (§1) Cells: Huh 7 cell line and HCV GT1b/3a and GT1b/6a NS5A chimeric replicons and GT1b and GT1a wild-type replicon RNA.
(§2) Treatment of Compound: According to the assay final concentrations of the compounds in Table 2, DMSO stock solutions of the compounds were diluted and then added to a 96-well assay plate. The final concentration of DMSO was 0.5%.
(§3) The preparation of cells: After replicon plasmid DNA was linearized with a corresponding restriction enzyme, the DNA was transcribed into RNA by using T7RNA polymerase. Replicon RNA prepared by transcription in vitro was transfected into Huh-7 cells by electroporation. Transfected cells were seeded at a density of 10,000 cells per well into the 96-well assay plate containing the diluted compounds, and then the plate was placed in a 37° C. incubator with 5% CO2 and cultured for 3 days.
(§4) Drug activity assay: Luminescence signal value (RLU) was detected with Envision within 15 minutes using the luciferase assay reagent Britelite plus, and the original data (RLU) was used for the calculation of the activity of the compounds.
(§5) The activity of the compounds was calculated by using the equation below: Inhibition %=(ZPE−CPD)/(ZPE−HPE)×100%*
(§6) The cell viability percentages (Viability %) and the inhibition percentages (Inhibition %) were imported into GraphPad Prism software, respectively, and curves were fitted by using nonlinear regression method to obtain the corresponding curves of the compounds, and the cytotoxicity (CC50) thereof and inhibitory activity (EC50) values against the HCV replicon thereof.

[2] = system: HCV GT1b/3a NS5A chimeric replicon; assay: Assay Example 1: activity against HCV GT1b/3a NS5A chimeric replicon; settings: Hepatitis C virus, Huh-7, 72 h, read-out: EC50 value GT1b/3a NS5A chimeric replicon
Procedure: as §1, §2, §3, §4, §5, §6

[3] = system: HCV GT1b/6a NS5A chimeric replicon; assay: Assay Example 1: activity against HCV GT1b/6a NS5A chimeric replicon; settings: Hepatitis C virus, Huh-7, 72 h, read-out: EC50 value GT1b/6a NS5A chimeric replicon
Procedure: as §1, §2, §3, §4, §5, §6

[4] = in vitro; settings: human; Huh 7 cells with GT1b wild-type replicon, 3 days, CellTiter-Fluor
Procedure: as §1, §2, §3
(§7) Cell viability assay: A cell growth fluorescent titration detection reagent CellTiter-Fluor was added to the 96-well plate of the GT1b wild-type replicon. After the cells were cultured for 1 hour in a 37° C. incubator with 5% CO2, the fluorescence signal value (RFU) was detected by Envision, and the original data (RFU) was used for the calculation of the cytotoxicity of the compounds.
The cytotoxicity of the compounds was calculated by using the equation below: Cell Viability %=(CPD−HPE)/(ZPE−HPE)×100%*
as §6

[5] = system: HCV GT1a wild-type replicon; assay: Assay Example 1: activity against HCV GT1a wild-type replicon; settings: Hepatitis C virus, 72 h, Huh 7 cells, 3 days, luciferase
Procedure: as §1, §2, §3, §4, §5, §6

[6] = system: HCV GT1b/6a NS5A chimeric replicon; assay: Assay Example 2: activity against GT1b/6a NS5A chimeric replicon; settings: Hepatitis C virus, Huh-7, 72 h, read-out: EC50 Value GT1b/6a-NS5A-wt
Procedure: (§8) Cells: Huh-7 cells are liver cancer cell strains (from AppTec, USA), HCV GT1a and GT1b wild type (wt) replicons, GT1b/3a, GT1b/4a, GT1b/5a and GT1b/6a NS5A chimeric replicons.
(§9) Treatment of Compound: According to the assay final concentrations of the compounds in Table 5, DMSO stock solutions of the compounds were diluted and then added to a 96-well assay plate. The final concentration of DMSO was 0.5%.
as §3, with “T7 RNA” for “T7RNA”, “then” for “then the plate was”
as §4
(§10) The cytotoxicity of the compounds was calculated by using the equation below: Cell Viability %=(CPD−HPE)/(ZPE−HPE)×100%* The activity of the compounds was calculated by using the equation below: Inhibition %=(ZPE−CPD)/(ZPE−HPE)×100%*
as §6, with “thereof and the inhibitory activity” for “thereof and inhibitory activity”

[7] = system: HCV GT1b/3a NS5A chimeric replicon; assay: Assay Example 2: activity against GT1b/3a NS5A chimeric replicon; settings: Hepatitis C virus, Huh-7, 72 h, read-out: EC50 Value GT1b/3a-NS5A-wt
Procedure: as §8, §9
as §3, with “T7 RNA” for “T7RNA”, “then” for “then the plate was”
as §4, §10
as §6, with “thereof and the inhibitory activity” for “thereof and inhibitory activity”

[8] = system: HCV GT1b wild type (wt) replicon; assay: Assay Example 2: activity against HCV GT1b wild-type replicon; settings: Hepatitis C virus, read-out: EC50 Value GT1b-wt
Procedure: as §8, §9
as §3, with “T7 RNA” for “T7RNA”, “then” for “then the plate was”
as §4, §10
as §6, with “thereof and the inhibitory activity” for “thereof and inhibitory activity”

[9] = Assay Example 2: cell viability assay (CellTiter-Fluor), GT1b wild-type replicon plate; settings: human, Huh-7 cells with GT1b wild-type replicon, read-out: CC50 Value GT1b-wt
Procedure: as §8, §9
as §3, with “T7 RNA” for “T7RNA”, “then” for “then the plate was”
as §7, §10
as §6, with “thereof and the inhibitory activity” for “thereof and inhibitory activity”

[10] = 72 h, Huh-7 cells, transient transfection, 3 days
[11] = Huh-7 cells transfected with HCV GT1b wild-type replicon RNA

Row | Structure (SMILES) | EC50 [1] | EC50 [2] | EC50 [3] | CC50 [4] | EC50 [5] | EC50 [6] | EC50 [7] | EC50 ([8]; Huh-7, 72 h) | CC50 at 3 days [9] | EC50 [8, 10] | CC50 at 3 days [9, 11]
1 | COC(=O)N[C@H](C(=O)N1CCC[C@H]1C(=O)Nc1ccc([C@H]2CC[C@H](c3ccc(NC(=O)[C@@H]4CCCN4C(=O)[C@@H](NC(=O)OC)[C@@H](C)OC)cc3)N2c2cc(F)c(N3CC[Si](C)(C)CC3)c(F)c2)cc1)[C@@H](C)OC [Compound 1b, Methyl ((2S,2′S,3R,3′R)-((2S,2′S)-(((((2R,5R)-1-(4-(4,4-dimethylazasilinan-1-yl)-3,5-difluorophenyl)pyrrolidin-2,5-diyl)bis(4,1-phenylene))bis(azanediyl))bis(carbonyl))bis(pyrrolidin-2,1-diyl))bis (3-methoxy-1-oxobutan-1,2-diyl))dicarbamate] | 0.0017 nM | 0.0048 nM | 0.114 nM | > 0.1 nM | 0.012 nM | – | – | – | – | – | –
2 | COC(=O)N[C@H](C(=O)N1CCC[C@H]1C(=O)Nc1ccc([C@@H]2CC[C@@H](c3ccc(NC(=O)[C@@H]4CCCN4C(=O)[C@@H](NC(=O)OC)[C@@H](C)OC)cc3)N2c2ccc(N3CC[Si](C)(C)CC3)c(F)c2)cc1)[C@@H](C)OC [Compound 2a, Methyl ((2S, 2′S, 3R, 3′R)-((2S, 2′S)-(((((2S, 5S)-1-(4-(4,4-dimethylazasilinan-1-yl)-3-fluorophenyl)pyrrolidin-2,5-diyl)bis(4,1-phenylene))bis(azanediyl))bis(carbonyl))bis(pyrrolidin-2,1-diyl))bis(3-methoxy-1-oxobutan-1,2-diyl))dicarbamate] | 0.0029 nM | 0.006 nM | 0.242 nM | > 0.1 nM | 0.012 nM | – | – | – | – | – | –
3 | COC(=O)N[C@H](C(=O)N1CCC[C@H]1C(=O)Nc1ccc([C@H]2CC[C@H](c3ccc(NC(=O)[C@@H]4CCCN4C(=O)[C@@H](NC(=O)OC)[C@@H](C)OC)cc3)N2c2ccc(N3CC[Si](C)(C)CC3)c(F)c2)cc1)[C@@H](C)OC [Compound 2b, Methyl ((2S, 2′S, 3R, 3′R)-((2S, 2′S)-(((((2R, 5R)-1-(4-(4,4-dimethylazasilinan-1-yl)-3-fluorophenyl)pyrrolidin-2,5-diyl)bis(4,1-phenylene))bis(azanediyl))bis(carbonyl))bis(pyrrolidin-2,1-diyl))bis(3-methoxy-1-oxobutan-1,2-diyl))dicarbamate] | 0.016 nM | 0.014 nM | 0.454 nM | > 0.1 nM | 0.065 nM | – | – | – | – | – | –
4 | COC(=O)N[C@H](C(=O)N1CCC[C@H]1C(=O)Nc1ccc([C@@H]2CC[C@@H](c3ccc(NC(=O)[C@@H]4CCCN4C(=O)[C@@H](NC(=O)OC)[C@@H](C)OC)cc3)N2c2cc(F)c(N3CC[Si]4(CCCC4)CC3)c(F)c2)cc1)[C@@H](C)OC [Compound 3a] | – | – | – | – | – | 0.0045 nM | 0.00635 nM | 0.00133 nM | > 0.2 nM | – | –
5 | COC(=O)N[C@H](C(=O)N1CCC[C@H]1c1nc2cc([C@@H]3CC[C@@H](c4ccc5[nH]c([C@@H]6CCCN6C(=O)[C@@H](NC(=O)OC)[C@@H](C)OC)nc5c4)N3c3cc(F)c(N4CC[Si](C)(C)CC4)c(F)c3)ccc2[nH]1)[C@@H](C)OC [Compound 4a] | 0.011 nM | 0.0039 nM | 0.026 nM | > 0.1 nM | 0.0054 nM | – | – | – | – | – | –
6 | COC(=O)N[C@H](C(=O)N1CCC[C@H]1c1nc2cc([C@H]3CC[C@H](c4ccc5[nH]c([C@@H]6CCCN6C(=O)[C@@H](NC(=O)OC)[C@@H](C)OC)nc5c4)N3c3cc(F)c(N4CC[Si](C)(C)CC4)c(F)c3)ccc2[nH]1)[C@@H](C)OC [Compound 4b] | 0.0059 nM | 0.0015 nM | 0.005 nM | > 0.1 nM | 0.0041 nM | – | – | – | – | – | –
7 | COC(=O)N[C@H](C(=O)N1CCC[C@H]1c1nc2cc([C@@H]3CC[C@@H](c4ccc5[nH]c([C@@H]6CCCN6C(=O)[C@@H](NC(=O)OC)[C@@H](C)OC)nc5c4)N3c3ccc(N4CC[Si](C)(C)CC4)c(F)c3)ccc2[nH]1)[C@@H](C)OC [Compound 5a] | 0.019 nM | 0.013 nM | 0.174 nM | > 0.1 nM | 0.017 nM | – | – | – | – | – | –
8 | COC(=O)N[C@H](C(=O)N1CCC[C@H]1c1nc2cc([C@H]3CC[C@H](c4ccc5[nH]c([C@@H]6CCCN6C(=O)[C@@H](NC(=O)OC)[C@@H](C)OC)nc5c4)N3c3ccc(N4CC[Si](C)(C)CC4)c(F)c3)ccc2[nH]1)[C@@H](C)OC [Compound 5b] | 0.017 nM | 0.0063 nM | 0.016 nM | > 0.1 nM | 0.013 nM | – | – | – | – | – | –
9 | COC(=O)N[C@H](C(=O)N1CCC[C@H]1C(=O)Nc1ccc([C@@H]2CC[C@@H](c3ccc4nc([C@@H]5CCCN5C(=O)[C@@H](NC(=O)OC)[C@@H](C)OC)[nH]c4c3)N2c2cc(F)c(N3CC[Si](C)(C)CC3)c(F)c2)cc1)[C@@H](C)OC [Compound 6a, Methyl ((2S,3R)-1-((S)-2-(6-((2S,5S)-1-(4-(4,4-dimethylazasilinan-1-yl)-3,5-difluorophenyl)-5-(4-((S)-1-(N-(methoxycarbonyl)-O-methyl-L-threonyl)pyrrolidin-2-formylamino)phenyl)pyrrolidin-2-yl)-1H-benzo[d]imidazol-2-yl)pyrrolidin-1-yl)-3-methoxy-1-oxobutan-2-yl)carbamate] | 0.0057 nM | 0.0052 nM | 0.23 nM | > 0.1 nM | 0.014 nM | – | – | – | – | – | –
10 | COC(=O)N[C@H](C(=O)N1CCCC1C(=O)Nc1ccc([C@@H]2CC[C@@H](c3ccc(-c4cnc([C@@H]5CCCN5C(=O)[C@@H](NC(=O)OC)[C@@H](C)OC)[nH]4)cc3)N2c2cc(F)c(N3CC[Si](C)(C)CC3)c(F)c2)cc1)[C@@H](C)OC (stereo partly shown) [Compound 8a] | – | – | – | – | – | 0.00905 nM | 0.0797 nM | – | – | 0.00208 nM | > 0.2 nM
11 | COC(=O)N[C@H](C(=O)N1CCCC1C(=O)Nc1ccc([C@H]2CC[C@H](c3ccc(-c4cnc([C@@H]5CCCN5C(=O)[C@@H](NC(=O)OC)[C@@H](C)OC)[nH]4)cc3)N2c2cc(F)c(N3CC[Si](C)(C)CC3)c(F)c2)cc1)[C@@H](C)OC (stereo partly drawn) [Compound 8b, Methyl ((2S,3R)-1-((S)-2-((4-((2R,5R)-1-(4-(4,4-dimethylazasilinan-1-yl)-3,5-difluorophenyl-5-(4-(2-((S)-1-(N-methoxycarbonyl)-O-methyl-L-threonyl)pyrrolidin-2-yl)-1H-imidazazol-5-yl)phenyl)pyrrolidin-2-yl)phenyl)carbamoyl)pyrrolidin-1-yl)-3-methoxy-1-oxobutan-2-yl)carbamate] | – | – | – | – | – | 0.00673 nM | 0.0679 nM | – | – | 0.00159 nM | > 0.2 nM
12 | COC(=O)N[C@H](C(=O)N1CCCC1c1nc2cc([C@H]3CC[C@H](c4ccc(-c5cnc([C@@H]6CCCN6C(=O)[C@@H](NC(=O)OC)[C@@H](C)OC)[nH]5)cc4)N3c3cc(F)c(N4CC[Si](C)(C)CC4)c(F)c3)ccc2[nH]1)[C@@H](C)OC (stereo partly shown) [Compound 15b] | – | – | – | – | – | – | 0.00728 nM | – | – | 0.00295 nM | > 0.2 nM
